Test results reported in PMC4368888, “Preclinical to Clinical Translation of CNS Transporter Occupancy of TD-9855, a Novel Norepinephrine and Serotonin Reuptake Inhibitor” (International Journal of Neuropsychopharmacology, 2015).
Where “and” joins values, the source holds several entries; their conditions need not be identical. Identical values can stand only once.

Target: NET (Homo sapiens, UniProt P23975)
Assay: Human PET NET occupancy with [11C]-MRB
Assay type: in vivo
Parameters: from tissue; host or cells: brain of healthy male volunteers, in vivo PET
Method: This was a Phase 1, open-label, single-dose study in healthy male volunteers to evaluate NET and SERT occupancy in the human brain after oral administration of TD-9855 using PET.
The study was conducted at the Yale PET Center in accordance with the principles of the International Conference on Harmonisation’s Technical Requirements for Registration of Pharmaceuticals for Human Use Guideline for Good Clinical Practice. The protocol was approved by the Yale University Human Investigation Committee and the Yale–New Haven Hospital Radiation Safety Committee. SERT and NET occupancy were determined using the selective radiotracers [^11C]-DASB ([Meyer et al., 2004]; [Takano et al., 2006]; [Abanades et al., 2011]; [Nogami et al., 2013]) and [^11C]-MRB. Selection of the radiotracers and the dose of TD-9855 were flexible to minimize the number of PET scans.
Eligible subjects were enrolled and received either [^11C]-MRB and/or [^11C]-DASB. Each subject underwent up to 5 PET scans over a period of up to 8 days. Multiple dose levels of TD-9855 (up to 20mg) were explored. All randomized subjects received the NET tracer (single-tracer evaluation) and some subjects (n = 3) received both the NET and SERT tracers sequentially (dual-tracer evaluation) in the baseline and post-dose period. […] In the dual-tracer evaluation, subjects completed sequential [^11C]-DASB and [^11C]-MRB baseline scans with each tracer, sequential post-dose scans with each tracer at 7–10hr post-dose, and one follow-up scan with [^11C]-MRB on or between Days 3 and 7.
The injected dose of both tracers was typically 14–15 mCi, with mass doses less than 10 µg in all cases. PET images were acquired using the High Resolution Research Tomograph (HRRT; Siemens/CTI) with a reconstructed image resolution of approximately 3mm. Following a transmission scan, [^11C]-MRB or [^11C]-DASB was injected intravenously as a 1min bolus by an infusion pump. List-mode data were acquired for 120min. Head motion correction was performed using an optical tracking tool (Vicra, NDI Systems) and a rigid tool attached to a swim cap.
The occipital cortex was selected as the reference region for [^11C]-MRB due to the low density of NET measured in vitro ([Schou et al., 2005]) and the absence of specific binding in a previous study ([Hannestad et al., 2010]). The regions of interest (ROIs) selected to assess [^11C]-MRB specific binding included one cortical region and the paracentral lobule, thalamus, hypothalamus, locus ceruleus, nucleus rubra, and raphe nucleus. The thalamus and cortical ROIs were delineated using the Automated Anatomical Labeling (AAL) template ([Tzourio-Mazoyer et al., 2002]). The hypothalamus, locus ceruleus, nucleus rubra, and raphe nucleus ROIs were drawn on the template MR image, based on the AAL template ([Hannestad et al., 2010]).
For both studies, binding potentials (BP ND) were estimated using a method based on a reference region input curve. For [^11C]-MRB regional BP ND were computed using the multilinear reference tissue model 2 (MRTM2; [Ichise et al., 2003]). The suitability of MRTM2 to estimate [^11C]-MRB BP ND values was evaluated in a previous study ([Hannestad et al., 2010]), in which it was shown that MRTM2 BP ND estimates are highly correlated with BP ND estimated with arterial blood sampling and the multilinear analysis 1 (y = 0.909 x + 0.078, r^2 = 0.821, where x represents the MA1 BP ND values and y represents the MRTM2 BP ND values). BP ND values and their associated standard errors ( SEBPND ) for each ROI were then estimated by performing fits of the regional TACs. Data were fitted starting at time t* = 20min. For [^11C]-DASB, regional BP ND values were computed using simplified reference tissue model 2 (SRTM2; [Wu and Carson, 2002]). SRTM2 is similar to MRTM2, except that it uses the full data set, while MRTM2 uses the period of time t > t*. When applied to single-voxel TACs, these fits provided the BP ND images. […]

[1] = 4 mg single oral dose, individual subjects, rApp ± SE
[2] = 10 mg single oral dose, individual subject, rApp ± SE
[3] = 20 mg single oral dose, individual subject, rApp ± SE
[4] = 20 mg single oral dose, individual subjects, rApp ± SE

NET, sequence (P23975 whole entry): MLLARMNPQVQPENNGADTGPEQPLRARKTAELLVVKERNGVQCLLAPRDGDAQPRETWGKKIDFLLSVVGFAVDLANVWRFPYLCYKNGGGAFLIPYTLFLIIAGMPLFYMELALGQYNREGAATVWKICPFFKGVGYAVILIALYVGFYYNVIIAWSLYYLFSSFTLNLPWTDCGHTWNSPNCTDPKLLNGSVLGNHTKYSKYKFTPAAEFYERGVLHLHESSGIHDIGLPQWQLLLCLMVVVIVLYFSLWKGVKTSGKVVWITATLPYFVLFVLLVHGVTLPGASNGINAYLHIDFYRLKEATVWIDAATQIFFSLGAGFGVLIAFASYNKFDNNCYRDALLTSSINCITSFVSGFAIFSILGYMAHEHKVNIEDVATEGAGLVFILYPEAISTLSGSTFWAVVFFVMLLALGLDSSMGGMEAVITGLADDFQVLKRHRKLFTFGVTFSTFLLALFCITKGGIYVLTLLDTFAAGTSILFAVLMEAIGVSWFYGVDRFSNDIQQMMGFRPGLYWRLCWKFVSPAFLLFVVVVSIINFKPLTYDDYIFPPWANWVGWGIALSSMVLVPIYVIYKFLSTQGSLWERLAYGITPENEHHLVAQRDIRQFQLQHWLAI

## Fc1cc(F)c(OCc2ccccc2C2CCNCC2)c(F)c1 [TD-9855, 4-[2-(2,4,6-trifluorophenoxymethyl)phenyl]piperidine]
4 mg single oral dose, individual subject, rApp ± SE
  Apparent NET Occupancy Day 7: 3.2±7.8%
[1]
  Apparent NET Occupancy Day 1: 57.9±4.7% and 58.7±5.5% and 42.2±6.4%
  Apparent NET Occupancy Day 3: 57.3±3.8% and 47.2±6.0% and 29.6±7.1%
[2]
  Apparent NET Occupancy Day 1: 110.3±7.4%
  Apparent NET Occupancy Day 3: 92.0±10.8%
[3]
  Apparent NET Occupancy Day 6: 62.9±5.0%
  Apparent NET Occupancy Day 7: 2.6±11.6%
[4]
  Apparent NET Occupancy Day 1: 120.3±6.2% and 98.4±4.7% and 119.1±8.3% and 121.2±4.5%
  Apparent NET Occupancy Day 3: 96.2±10.2% and 124.3±4.9%
Human brain PET, single oral 4-20mg, fit ± standard error, read-out: plasma EC50 for NET occupancy (converted)
  EC50: 3.77 nM
